Measurements as given in patent US9346761B2, “Arginine methyltransferase inhibitors and uses thereof” (Epizyme, Inc., priority 2013, dated 2016).
Structures can show the parent of a compound that is named as a salt. Where two headings read alike, the source gives them in different places.

Key:
[1] = test system: mono-methyl arginine in RKO cells; experiment: RKO methylation assay, In Cell Western for mono-methyl arginine and DNA content; type: cell-based; settings: Homo sapiens
[2] = target: T1, Full-length human PRMT1 isoform 1 (Homo sapiens, UniProt Q99873); experiment: PRMT1 biochemical assay (3H-SAM Flashplate, peptide substrate)
T1 construct: GST-tagged PRMT1; made in house; host or cells: High Five insect cells (baculovirus, pFastBacI)
T1 sequence (Q99873 with tags, fused parts or gaps): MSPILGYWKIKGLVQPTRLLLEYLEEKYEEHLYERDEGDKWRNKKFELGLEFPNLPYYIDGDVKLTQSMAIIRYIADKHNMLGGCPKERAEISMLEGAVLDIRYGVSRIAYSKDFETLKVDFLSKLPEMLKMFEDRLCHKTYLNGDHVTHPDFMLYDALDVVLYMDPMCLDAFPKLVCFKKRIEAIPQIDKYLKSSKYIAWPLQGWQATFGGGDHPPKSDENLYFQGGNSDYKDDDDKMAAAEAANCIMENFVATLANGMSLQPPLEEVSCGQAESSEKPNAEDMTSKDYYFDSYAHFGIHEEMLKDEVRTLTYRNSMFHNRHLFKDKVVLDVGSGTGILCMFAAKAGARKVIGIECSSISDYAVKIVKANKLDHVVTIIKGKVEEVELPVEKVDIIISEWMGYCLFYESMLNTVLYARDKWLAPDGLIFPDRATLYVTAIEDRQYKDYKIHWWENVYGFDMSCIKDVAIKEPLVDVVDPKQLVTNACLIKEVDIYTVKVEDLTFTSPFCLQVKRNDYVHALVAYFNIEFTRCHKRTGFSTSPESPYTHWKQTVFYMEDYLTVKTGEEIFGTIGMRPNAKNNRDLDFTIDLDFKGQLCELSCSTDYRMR
Outline: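 Tritiated methyl transfer from 3H-SAM onto biotinylated peptide, captured on streptavidin Flashplates and counted. Baculovirus-expressed GST-PRMT1 and compound were preincubated 30 min at room temperature in Bicine buffer pH 7.6. Cold SAM at 300 uM final ended the reaction.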

[3] = In Cell Western, RKO cells, 72 hours, percent activation of mono-methyl arginine signal, read-out: EC30

Structure (SMILES) | EC30 ([1]; RKO, 72 h) | IC50 [2] | EC30 [1, 3]
CCn1ncc(CN(C)CCNC)c1-c1ccc(OC(C)C)cc1 [Compound 252] | < 3 µM | < 100 nM | –
CNCCN(C)Cc1cn[nH]c1-c1cc(F)cc(F)c1 [Compound 18] | – | < 100 nM | > 12 µM
CNCCN(C)Cc1cnn(CCCC(O)CO)c1-c1ccc(F)cc1 (stereo not drawn) [Compound 31] | – | 101 to 1000 nM | > 12 µM
CNCCN(C)Cc1cnn(C)c1-c1ccc(Oc2ccccc2)cc1 [Compound 208] | – | < 100 nM | < 3 µM
CNCCN(C)Cc1cnn(C2CCCC2)c1-c1ccc(OC(C)C)cc1 [Compound 255] | < 3 µM | < 100 nM | –
CNCCN(C)Cc1cn(CC(N)=O)nc1-c1ccc(OC(C)C)cc1 [Compound 251] | – | 101 to 1000 nM | > 12 µM
CCNC(=O)c1cccc(-c2n[nH]cc2CN(C)CCNC)c1 [Compound 43] | – | 101 to 1000 nM | > 12 µM
CN(CCN)Cc1c[nH]nc1-c1ccc(Oc2ccccc2)c(C(=O)N(C)C)c1 [Compound 226] | – | < 100 nM | > 12 µM
CNCCN(C)Cc1c[nH]nc1-c1ccc(Cl)c(F)c1 [Compound 182] | – | < 100 nM | < 3 µM
CNCCN(C)Cc1cnn(C2CC2)c1-c1ccc(F)cc1 [Compound 14] | – | 101 to 1000 nM | 3.01 to 12 µM
CNCCN(C)Cc1cn(C2CCOC2)nc1-c1ccc(OC(C)C)cc1 (stereo not drawn) [Compound 215] | – | < 100 nM | > 12 µM
CC(C)Oc1cccc(-c2n[nH]cc2CN(C)CCN)c1 [Compound 187] | – | 101 to 1000 nM | 3.01 to 12 µM
CN(CCN)Cc1c[nH]nc1-c1ccc(Oc2ccccc2)c(C#N)c1 [Compound 202] | – | < 100 nM | < 3 µM
CC(C)CN1C(=O)COc2ccc(-c3n[nH]cc3CN(C)CCN)cc21 [Compound 191] | – | 101 to 1000 nM | > 12 µM
CNCCN(C)Cc1n[nH]cc1-c1ccc(OC(C)C)c(F)c1 [Compound 210] | – | < 100 nM | < 3 µM
CNCCN(C)Cc1c[nH]nc1-c1ccc(CO)cc1 [Compound 28] | – | < 100 nM | 3.01 to 12 µM
CNCCN(C)Cc1cn(Cc2ccccc2)nc1-c1ccc(OC(C)C)cc1 [Compound 217] | – | < 100 nM | > 12 µM
CN(CCN)Cc1c[nH]nc1-c1ccc(OCCCO)cc1 [Compound 195] | – | < 100 nM | 3.01 to 12 µM
CC(C)Oc1cc(-c2n[nH]cc2CN(C)CCN)ccc1F [Compound 188] | – | 101 to 1000 nM | > 12 µM

Structure (SMILES) | EC30 ([1]; RKO, 72 h) | IC50 [2] | EC30 [1, 3]
CNCCN(C)Cc1n[nH]cc1-c1ccc(Oc2ccccc2)cc1 [Compound 204] | – | < 100 nM | < 3 µM
CNCCN(C)Cc1cn(C2CC2)nc1-c1ccc(F)cc1 [Compound 13] | – | 1010 to 3000 nM | > 12 µM
CNCCN(C)Cc1c[nH]nc1-c1ccc(OC)cc1 [Compound 25] | – | < 100 nM | > 12 µM
CCNC(=O)c1cccc(-c2n[nH]cc2CN(C)CCN)c1 [Compound 197] | – | 101 to 1000 nM | > 12 µM
CN(CCN)Cc1c[nH]nc1-c1ccc(Oc2ccc(F)cc2)cc1 [Compound 225, N^1-((3-(4-(4-fluorophenoxy)phenyl)-1H-pyrazol-4-yl)methyl)-N^1-methylethane-1,2-diamine] | – | < 100 nM | < 3 µM
CC(C)CN1C(=O)COc2cc(-c3n[nH]cc3CN(C)CCN)ccc21 [Compound 193] | – | < 100 nM | 3.01 to 12 µM
CNCCN(C)Cc1cn(C2CCCCC2)nc1-c1ccc(OC(C)C)cc1 [Compound 256] | – | 101 to 1000 nM | > 12 µM
Cc1cc(-c2n[nH]cc2CN(C)CCN)cc(C)c1OC(C)C [Compound 199, N^1-((3-(4-isopropoxy-3,5-dimethylphenyl)-1H-pyrazol-4-yl)methyl)-N^1-methylethane-1,2-diamine] | – | < 100 nM | < 3 µM
CNCCN(C)Cc1cn(C2CCC2)nc1-c1ccc(OC(C)C)cc1 [Compound 254, N1-((1-cyclobutyl-3-(4-isopropoxyphenyl)-1H-pyrazol-4-yl)methyl)-N1,N2-dimethylethane-1,2-diamine hydrochloride] | – | < 100 nM | < 3 µM
CNCCN(C)Cc1c[nH]nc1-c1cccc(O)c1 [Compound 26] | – | 101 to 1000 nM | > 12 µM
CC(C)Oc1ccc(-c2c[nH]nc2CN(C)CCN)cc1Cl [Compound 211] | – | < 100 nM | < 3 µM
CNCCN(C)Cc1cnn(C2CCOC2)c1-c1ccc(OC(C)C)cc1 (stereo not drawn) [Compound 216] | – | < 100 nM | > 12 µM
CCCc1ccc(-c2n[nH]cc2CN(C)CCNC)cc1 [Compound 20] | – | < 100 nM | < 3 µM
CNC(=O)c1cc(-c2n[nH]cc2CN(C)CCN)ccc1Oc1ccccc1 [Compound 227] | – | < 100 nM | > 12 µM
CCN(C)C(=O)c1cccc(-c2n[nH]cc2CN(C)CCN)c1 [Compound 198] | – | 1010 to 3000 nM | > 12 µM
C=CCn1ncc(CN(C)CCNC)c1-c1ccc(OC(C)C)cc1 [Compound 219] | – | < 100 nM | > 12 µM
CNCCN(C)Cc1c[nH]nc1-c1ccc(N)cc1 [Compound 33] | – | 101 to 1000 nM | > 12 µM
CNCCN(C)Cc1c[nH]nc1-c1cccc(OC)c1 [Compound 24] | – | < 100 nM | > 12 µM
CNCCN(C)Cc1cn(C)nc1-c1ccc(OC(C)C)cc1 [Compound 243, N1-((3-(4-isopropoxyphenyl)-1-methyl-1H-pyrazol-4-yl)methyl)-N1,N2-dimethylethane-1,2-diamine] | – | < 100 nM | < 3 µM

Structure (SMILES) | EC30 ([1]; RKO, 72 h) | IC50 [2] | EC30 [1, 3]
CNCCN(C)Cc1c[nH]nc1-c1cccc(C#N)c1 [Compound 22] | – | 101 to 1000 nM | > 12 µM
CNCCN(C)Cc1cn(C)nc1-c1ccc(Oc2ccccc2)cc1 [Compound 207] | – | < 100 nM | < 3 µM
CNCCN(C)Cc1cnn(C(C)C)c1-c1ccc(F)cc1 [Compound 16] | > 12 µM | 1010 to 3000 nM | –
CNCCN(C)Cc1cn(Cc2cccnc2)nc1-c1ccc(OC(C)C)cc1 [Compound 246] | < 3 µM | < 100 nM | –
CNCCN(C)Cc1cnn(CC(=O)OC)c1-c1ccc(OC(C)C)cc1 [Compound 249] | 3.01 to 12 µM | 101 to 1000 nM | –
CN(CCN)Cc1n[nH]cc1-c1ccc(Oc2ccccc2)cc1 [Compound 203] | – | < 100 nM | < 3 µM
CNCCN(C)Cc1n[nH]cc1-c1ccc(OC(C)C)c(Cl)c1 [Compound 212] | – | < 100 nM | < 3 µM
CN(CCN)Cc1c[nH]nc1-c1ccc(Oc2ccccc2)c(F)c1 [Compound 224, N^1-((3-(3-fluoro-4-phenoxyphenyl)-1H-pyrazol-4-yl)methyl)-N^1-methylethane-1,2-diamine] | < 3 µM | < 100 nM | –
CNCCN(C)Cc1cn(CCOC)nc1-c1ccc(OC(C)C)cc1 [Compound 253, N1-((3-(4-isopropoxyphenyl)-1-(2-methoxyethyl)-1H-pyrazol-4-yl)methyl)-N1,N2-dimethylethane-1,2-diamine hydrochloride] | – | 101 to 1000 nM | 3.01 to 12 µM
CNCCN(C)Cc1c[nH]nc1-c1ccc(O)cc1 [Compound 27] | – | < 100 nM | > 12 µM
CN(CCNC1CC1)Cc1c[nH]nc1-c1ccc(C#N)cc1 [Compound 183] | – | 1010 to 3000 nM | > 12 µM
CNCCN(C)Cc1c[nH]nc1-c1ccc(Oc2ccccc2)cc1 [Compound 37] | – | < 100 nM | < 3 µM
CN(CCN)Cc1c(-c2ccc(C#N)cc2)ncn1C [Compound 222] | – | 1010 to 3000 nM | > 12 µM
CNCCN(C)Cc1cn(C)nc1-c1ccc(OC(C)C)c(Cl)c1 [Compound 206] | < 3 µM | < 100 nM | –
CNCCN(C)Cc1c[nH]nc1-c1ccc(C)cc1C [Compound 29] | – | 101 to 1000 nM | > 12 µM
C=CCn1cc(CN(C)CCNC)c(-c2ccc(OC(C)C)cc2)n1 [Compound 218] | – | < 100 nM | > 12 µM
CNCCN(C)Cc1c[nH]nc1-c1ccccc1OC(F)(F)F [Compound 40] | – | 101 to 1000 nM | > 12 µM
CN(CCN(C)C1CC1)Cc1c[nH]nc1-c1ccc(C#N)cc1 [Compound 184] | – | 1010 to 3000 nM | < 3 µM
CNCCN(C)Cc1c[nH]nc1-c1cccc([N+](=O)[O-])c1 [Compound 21] | – | < 100 nM | > 12 µM
